This is an account of results in US20110053897A1 (IRM LLC, priority 2009, published 2011).

For one experiment, the target named is T1, Syk kinase (Homo sapiens, UniProt P43405).
T1 construct: purchased
The experiment can be described thus: Syk kinase inhibition, Caliper LabChip off-chip mobility-shift kinase assay. Format: biochemical. To be noted: Caliper LabChip assay; read-out: Syk Enzyme IC50. On the procedure:
Compounds of the examples and Table 1 provided herein were assayed to measure their capacity to inhibit Syk kinase.
Compounds of the examples and Table 1 provided herein were assessed for their ability to inhibit Syk kinase by utilizing Caliper Life Sciences' proprietary LabChip™ technology. The off-chip incubation mobility-shift kinase assay uses a microfluidic chip to measure the conversion of a fluorescent peptide substrate to a phosphorylated product. The reaction mixture, from a microtiter plate well, is introduced through a capillary sipper onto the chip, where the nonphosphorylated substrate and phosphorylated product are separated by electrophoresis and detected via laser induced fluorescence. […] The phosphorylated product migrates through the chip faster than the non-phosphorylated substrate, and signals from the two forms of the peptide appear as distinct peaks. Caliper's data analysis software (HTSWA) determines peak heights, from which the ratio of product to the peak sum P/(P+S) and percent (%) conversion is calculated. This value is used to compare compound wells to control wells present on the plate, and thereby determine the % inhibition values for the compound. The formula used to calculate % inhibition is as follows, where C100% is the average % conversion of the 100% activity wells and Co% is the average % conversion of the 0% activity wells: (1−(% conversionofsample−C0%)/(C100%−C0%))*100.
Compounds (10 mM stocks in 100% DMSO) are diluted to a final concentration of 5 μM for single point inhibition experiments, and a series dilution of 10, 3, 1, 0.3, 0.1, 0.03, 0.01, 0.003, 0.001, 0.0003, 0.0001, and 0.00003 μM were made for IC50 determination. Generally, 12 μL of enzyme buffer containing purified kinase (various amount; various suppliers), 100 mM HEPES, pH 7.5, 1 mM DTT (Calbiochem, 2333153), 10 mM MgCl2 (Sigma, M-1028) or 10 mM MnCl2 (Sigma, M-1787) (assay specific), and 0.002% Brij-35 (Sigma, B4184) are added to each well. Compound and enzyme are allowed to pre-incubate for 15 minutes. 12 μL of peptide/ATP buffer containing 100 mM HEPES, pH 7.5, 1.5 μM fluorescein-labeled peptide (specific to kinase of interest), ATP (at KM apparent, Sigma, A9187), and 0.002% Brij-35 is then added to each well to initiate the reaction. The final concentration of DMSO in the well is 4%. Generally, reactions are incubated for 1 to 1.5 hours at room temperature to obtain adequate conversion of peptide to phosphorylated product in the linear range of the reaction. Reactions are terminated with the addition of 45 μL of Stop Buffer (containing 20 mM EDTA). Plates are then read on the LabChip 3000 using a 12-sipper LabChip. % conversion values and % inhibition values are obtained as provided and IC50 curves of compounds are generated using GraphPad Prism Version 4 or 5.01, or XLfit Version 4.3.2. When using GraphPad Prism, a nonlinear curve fit using the sigmoidal dose response—variable slope fit was used to graph IC50 curves and determine IC50 values and hillslopes. When using XLfit, Fit Model 205 (4-Parameter Logistic Model) is used to generate and fit the IC50 curve.
In general, IC50 refers to the midpoint of a concentration-inhibition curve. Take `CC(C)(C)Nc1nc(Nc2cc(-c3ccc4[nH]ncc4c3)ccn2)cc2ccn(CCO)c(=O)c12` [compound 851]: the IC50 amounted to 222 nM.
`CCn1ccc2cc(Nc3cc(C)ccn3)nc(N[C@H]3CC[C@@H](CO)C3)c2c1=O` [compound 792]: the IC50 came out at 33 nM.
For the molecule `CCC(O)(CC)c1ccnc(Nc2cc3ccn(CCO)c(=O)c3c(NC(C)(C)C)n2)c1` [compound 708], the IC50 was determined as 595 nM.
On the same count and under the same terms, under `CC1(Nc2nc(Nc3cc(C(C)(C)O)ncn3)cc3ccn(CC(O)CO)c(=O)c23)CCC1` (centres unmarked) [compound 732] stands 35 nM; under `CC1(Nc2nc(-c3cnc(N)nc3)cc3ccn(CCO)c(=O)c23)CC1` [compound 1036], 20 nM; under `CO/N=C(\C)c1ccnc(Nc2cc3ccn(CCO)c(=O)c3c(NC(C)(C)C)n2)c1` [compound 695], 431 nM.
The same measure, in the same setting: under `[2H][C@]1(O)CC[C@H](Nc2nc(Nc3cnccn3)cc3ccn(CC)c(=O)c23)CC1` [compound 991] stands 29 nM; under `Cn1ccc2cc(Nc3nccc(O)n3)nc(N[C@H]3CC[C@@H](O)CC3)c2c1=O` [compound 798], 128 nM; under `CCn1ccc2cc(Nc3cnccn3)nc(NS(C)(=O)=O)c2c1=O` [compound 745], 69 nM.
For the molecule `CCn1ccc2cc(Nc3cnccn3)nc(Nc3ccc(C(=O)NCCO)cc3)c2c1=O` [compound 831], the IC50 came out at 213 nM.
On the same count and under the same terms, under `CC(C)(C)Nc1nc(Nc2cc(-c3cn[nH]c3)ccn2)cc2ccn(CCO)c(=O)c12` [compound 840] stands 117 nM.
Still for that read-out and setting: as for `CC(C)n1ccc2cc(Nc3cnccn3)nc(NC(C)(C)CO)c2c1=O` [compound 820], the figure is 84 nM; as for `CC(C)(C)Nc1nc(Nc2cc(OCCO)ccn2)cc2ccn(CCO)c(=O)c12` [compound 866], 11 nM; as for `COCCn1ccc2cc(Nc3cnccn3)nc(NC(C)(C)C)c2c1=O` [compound 1006], 96 nM.
With `NC(=O)Cn1ccc2cc(Nc3cnccn3)nc(NC3CCC3)c2c1=O` [compound 754], the IC50 was found to be 12 nM.
The same measure, in the same setting: under `CC(C)n1ccc2cc(Nc3cnccn3)nc(N[C@H]3CC[C@@H](O)C3)c2c1=O` [compound 978] stands 16 nM; under `CC(C)Nc1nc(Nc2cc(C(C)(C)O)ccn2)cc2ccn(CCO)c(=O)c12` [compound 705], 14 nM; under `CCn1ccc2cc(Nc3cnccn3)nc(NC3CC=C(C)CC3)c2c1=O` (centres unmarked) [compound 955], 376 nM.
With `CC(C)(C)Nc1nc(Nc2cnccn2)cc2ccn(C3COC3)c(=O)c12` [compound 1014], the IC50 was found to be 120 nM.
Same read-out and setting: under `CCn1ccc2cc(Nc3cnccn3)nc(NC3(CO)CCCC3)c2c1=O` [compound 788] stands 324 nM.
As to `CC(C)(C)Nc1nc(Nc2cc(C(C)(F)F)ccn2)cc2ccn(CCO)c(=O)c12` [compound 874], the IC50 amounted to 33 nM.
As to `Nc1ncc(-c2cc3ccn(CCN4CCOCC4)c(=O)c3c(N[C@H]3CC[C@@H](O)CC3)n2)cn1` [compound 1029], the IC50 was 72 nM.
Same read-out and setting: under `CC(C)(C)Nc1nc(Nc2cc(C(F)(F)F)ccn2)cc2ccn(CCO)c(=O)c12` [compound 901] stands 231 nM; under `CCn1ccc2cc(Nc3cnccn3)nc(NC3CCS(=O)(=O)C3)c2c1=O` (centres unmarked) [compound 971], 145 nM.
Same read-out and setting: under `CCn1ccc2cc(Nc3cc(C)ccn3)nc(N[C@H](CO)C(C)(C)C)c2c1=O` [compound 806] stands 568 nM.
On the same count and under the same terms, as for `CC(C)(Cc1ccc(F)cc1)Nc1nc(-c2cnc(N)nc2)cc2ccn(CCO)c(=O)c12` [compound 925], the figure is 145 nM.

The same experiment, now with this note: read-out: Syk Enzyme IC50.
Regarding `CCN1CCN(CCc2ccc(Nc3nc(-c4cncc(OC)n4)cc4cc[nH]c(=O)c34)cc2)CC1C` (centres unmarked) [compound 33], the IC50 was found to be 34 nM.
Consider `CCn1ccc2cc(Nc3cc(Cl)ccn3)nc(NCC(F)(F)F)c2c1=O` [compound 592], for which the IC50 turned out to be 962 nM.
The same measure, in the same setting: under `Cc1ccnc(Nc2cc3cc[nH]c(=O)c3c(NCC(O)c3cccc(Cl)c3)n2)c1` (centres unmarked) [compound 496] stands 115 nM; under `CCOCC(=O)N1CCC(c2ccc(Nc3nc(-c4cncc(OC)n4)cc4cc[nH]c(=O)c34)cc2)CC1` [compound 28], 115 nM.
Same read-out and setting: under `O=c1[nH]ccc2cc(C3=CCOCC3)nc(Nc3ccc(N4CCOCC4)cc3)c12` [compound 86] stands 96 nM; under `CCn1ccc2cc(Nc3cc(C)ccn3)nc(N[C@H]3CCCC[C@H]3O)c2c1=O` (racemic) [compound 408], 324 nM; under `CCn1ccc2cc(Nc3ncccn3)nc(NC[C@@H]3CC[C@@H](O)C3)c2c1=O` [compound 413], 46.2 nM.
Still for that read-out and setting: under `CCn1ccc2cc(Nc3ncccn3)nc(NC[C@H]3CC[C@H](O)C3)c2c1=O` [compound 411] stands 71 nM; under `COc1cncc(-c2cc3cc[nH]c(=O)c3c(Nc3ccc(C4CCN(CCC(=O)O)CC4)c(C)c3)n2)n1` [compound 163], 7 nM; under `Cc1ccnc(Nc2cc3cc[nH]c(=O)c3c(N[C@@H]3CCC[C@H]3O)n2)c1` (racemic) [compound 267], 56 nM.
Turning to `C[C@@H](CO)Nc1nc(Nc2ccccn2)cc2cc[nH]c(=O)c12` [compound 298], the IC50 turned out to be 155 nM.
Still for that read-out and setting: under `Cc1ccnc(Nc2cc3cc[nH]c(=O)c3c(NCc3ccccc3)n2)c1` [compound 591] stands 5680 nM; under `CCn1ccc2cc(Nc3cnccn3)nc(N[C@@H]3CC[C@H](O)C3)c2c1=O` [compound 427], 48.6 nM; under `Cc1cc(Nc2nc(Nc3cc(Cl)ccn3)cc3cc[nH]c(=O)c23)ccc1C1CCN(C2CC2)CC1` [compound 257], 170 nM.
Regarding `Cc1ncc(-c2cc3cc[nH]c(=O)c3c(Nc3ccc([C@H]4CC[C@H](N5CCOCC5)CC4)cc3)n2)cn1` [compound 1], the IC50 was 49 nM.
Same read-out and setting: under `[2H]C([2H])([2H])n1ccc2cc(Nc3cc(C)c(Cl)cn3)nc(NC3CC3)c2c1=O` [compound 548] stands 468 nM; under `Cc1ccnc(Nc2cc3cc[nH]c(=O)c3c(NCCc3cccnc3)n2)c1` [compound 284], 166 nM; under `COc1cncc(-c2cc3cc[nH]c(=O)c3c(Nc3ccc(CCN4CCN(C(C)C)CC4)cc3)n2)n1` [compound 21], 86 nM.
`Cc1cc(Nc2nc(Nc3ccc(C#N)cn3)cc3cc[nH]c(=O)c23)ccc1N1CCO[C@H](C)C1` [compound 557]: the IC50 is 3350 nM.
Same read-out and setting: under `CCn1ccc2cc(Nc3cc(C)ccn3)nc(N[C@H]3CCC[C@H]3O)c2c1=O` (racemic) [compound 360] stands 67 nM; under `CCn1ccc2cc(Nc3cc(C)ccn3)nc(NC[C@H]3CC[C@@](C)(O)C3)c2c1=O` [compound 416], 176 nM.
Same read-out and setting: as for `COc1cncc(-c2cc3cc[nH]c(=O)c3c(Nc3ccc(C4CCN(C(=O)[C@H](C)OC)CC4)c(C)c3)n2)n1` [compound 58], the figure is 40 nM.
As to `COCCOCC(=O)N1CCC(c2ccc(Nc3nc(-c4cncc(OC)n4)cc4cc[nH]c(=O)c34)cc2)CC1` [compound 27], the IC50 is 44 nM.
On the same count and under the same terms, under `CCn1ccc2cc(Nc3cc(C)ccn3)nc(NC[C@@H]3CC[C@@H](O)C3)c2c1=O` [compound 412] stands 224 nM; under `CCN1CCN(CCc2ccc(Nc3nc(Nc4ccc(C#N)cn4)cc4cc[nH]c(=O)c34)cc2)CC1` [compound 564], 385 nM; under `O=c1[nH]ccc2cc(Nc3ccccn3)nc(N[C@H]3CCC[C@H]3O)c12` (racemic) [compound 280], 62 nM.
Same read-out and setting: under `Cc1cc(Nc2nc(Nc3ccc(S(N)(=O)=O)cn3)cc3cc[nH]c(=O)c23)ccc1C1CCN(C2CC2)CC1` [compound 258] stands 61 nM; under `COC(=O)CN1CCC(c2ccc(Nc3nc(-c4cncc(OC)n4)cc4cc[nH]c(=O)c34)cc2C)CC1` [compound 157], 99 nM; under `CC(C)N1CCC(c2cc3cc[nH]c(=O)c3c(Nc3ccc(N4CCOCC4)cc3)n2)CC1` [compound 3], 202 nM.
Take `CCn1ccc2cc(Nc3cc(Cl)ccn3)nc(N[C@H]3CC[C@@H](O)CC3)c2c1=O` [compound 383]: the IC50 is 26 nM.
